The values that follow come from ChEMBL document CHEMBL1201862, “PubChem BioAssay data set” (2004).

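96-well plates; 48 h exposure; 5 concentrations. Endpoints by linear interpolation between flanking doses. Not reached: highest tested concentration assigned. GI50 is the concentration that inhibits growth by half.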 Active and inactive are the calls of the source. Cut-off read from the data, not from the text of the source: active = GI50 up to about 1.1 µM and inactive = higher. Bounds are passed on as bounds.

Among the test systems are SW-620; OVCAR-8; HCT-15; CCRF-CEM; A498; NCI-H460; NCI-H522; SF-295; U-251; IGROV-1; HCC 2998; OVCAR-3; HL-60; SK-OV-3; COLO 205; A549; MDA-N; SK-MEL-5; Malme-3M; TK-10.
Assay in all cases: NCI tumour cell line growth inhibition, 48 h

In the case of `Cc1ccc(OCC2OC(n3cnc4c(Cl)nc(Nc5cc(Cl)cc(Cl)c5)nc43)CC2Oc2ccc(C)cc2)cc1` (stereo unspecified), the GI50 was > 100 µM (inactive) in the test with SW-620; > 100 µM (inactive) in the test on OVCAR-8; more than 100 µM in the test on HCT-15; > 100 µM (inactive) in the test on CCRF-CEM; > 100 µM (inactive) in the test on A498; > 100 µM (inactive) in the test with NCI-H460. Further, the GI50 in the test with NCI-H522, in the test on SF-295, in the test with U-251, in the test with IGROV-1, in the test on HCC 2998 and in the test with OVCAR-3 was > 100 µM (inactive) each time. Further, the GI50 with HL-60, in the test with SK-OV-3, in the test with COLO 205, in the test on A549, with MDA-N and in the test with SK-MEL-5 was > 100 µM (inactive) each time. Moreover, in the test with Malme-3M, the GI50 is > 100 µM (inactive).
On to `CCOC(=O)C1(N)CC1`, for which the GI50 with SW-620 is > 100 µM (inactive); in the test with OVCAR-8, > 100 µM (inactive); in the test on HCT-15, more than 100 µM; with CCRF-CEM it was > 100 µM (inactive); in the test with A498 it was > 100 µM (inactive); in the test on NCI-H460, > 100 µM (inactive). Further, the GI50 with NCI-H522, in the test on TK-10, with SF-295, in the test with U-251, with IGROV-1 and in the test on HCC 2998 was > 100 µM (inactive) in each case. The GI50 with OVCAR-3, with HL-60, with A549, with MDA-N, in the test on SK-MEL-5 and with Malme-3M was > 100 µM (inactive) in each case.
Regarding `O=C(N/N=C(COc1ccc(Cl)cc1)\N=C\c1cccnc1)c1ccncc1`, the GI50 in the test with SW-620 is > 100 µM (inactive); in the test on OVCAR-8, 89.1 µM (inactive); with HCT-15, 85.9 µM; in the test with CCRF-CEM, > 100 µM (inactive); in the test on A498, 52.6 µM (inactive); in the test on NCI-H460 it was > 100 µM (inactive). The GI50 with NCI-H522 is 23.5 µM (inactive); in the test with TK-10, > 100 µM (inactive); in the test with SF-295, > 100 µM (inactive); in the test with U-251, > 100 µM (inactive); in the test on IGROV-1, > 100 µM (inactive); with HCC 2998 it was 88.1 µM (inactive). Further, the GI50 in the test with OVCAR-3 was > 100 µM (inactive); in the test with HL-60 it was > 100 µM (inactive); with SK-OV-3, > 100 µM (inactive); with COLO 205, 96.8 µM (inactive); with A549 it was > 100 µM (inactive); in the test on MDA-N, 25.5 µM (inactive). Further, the GI50 in the test on Malme-3M was 49.7 µM (inactive).
On to `O=c1[nH]c(=S)c2cc3c(=S)[nH]c(=O)n(CCC(c4ccccc4)(c4ccccc4)c4ccccc4)c3nc2n1CCC(c1ccccc1)(c1ccccc1)c1ccccc1`, for which the GI50 in the test with HCT-15 is more than 100 µM; in the test with CCRF-CEM, 13.6 µM (inactive); in the test with A498 it was > 100 µM (inactive); in the test with NCI-H460 it was > 100 µM (inactive); in the test with NCI-H522, > 100 µM (inactive); with TK-10, > 100 µM (inactive). Besides, the GI50 in the test on SF-295, in the test with U-251, with HCC 2998, with OVCAR-3, with SK-OV-3 and in the test on COLO 205 was > 100 µM (inactive) each time. Moreover, the GI50 with A549, in the test on MDA-N, with SK-MEL-5 and in the test on Malme-3M was > 100 µM (inactive) throughout.
Turning to `N#CCc1nc(C#N)c(N)o1`, the GI50 with SW-620 is > 100 µM (inactive); in the test on OVCAR-8, > 100 µM (inactive); in the test on HCT-15, more than 100 µM; with CCRF-CEM it was > 100 µM (inactive); in the test on A498, > 100 µM (inactive); in the test with NCI-H460 it was > 100 µM (inactive). Also, the GI50 in the test with NCI-H522, with TK-10, in the test on SF-295, in the test on U-251, with IGROV-1 and in the test with HCC 2998 was > 100 µM (inactive) in each case. The GI50 in the test with OVCAR-3 was > 100 µM (inactive); in the test with SK-OV-3, > 100 µM (inactive); with COLO 205 it was > 100 µM (inactive); in the test with A549, > 100 µM (inactive); in the test on MDA-N, > 100 µM (inactive); in the test on Malme-3M, < 0.01 µM (active).
For `CN(C)c1ccc(/C=C2\N=C(NNc3ccccc3)NC2=O)cc1`, the GI50 in the test with SW-620 is 26.8 µM (inactive); in the test with OVCAR-8, 30.9 µM (inactive); with HCT-15, 22 µM; with CCRF-CEM, < 0.01 µM (active); in the test with A498, 17.1 µM (inactive); with NCI-H460, 19.1 µM (inactive). Also, the GI50 with NCI-H522 was 18.8 µM (inactive); in the test on TK-10 it was 20.8 µM (inactive); in the test on SF-295, 21.5 µM (inactive); in the test on U-251, 14.3 µM (inactive); in the test on IGROV-1 it was 23.4 µM (inactive); in the test on HCC 2998, 14 µM (inactive). For the same compound, the GI50 was 16 µM (inactive) in the test on OVCAR-3; 27.5 µM (inactive) in the test with SK-OV-3; 15.6 µM (inactive) with COLO 205; 20.4 µM (inactive) with A549; 27.7 µM (inactive) in the test on MDA-N; 38.2 µM (inactive) in the test with Malme-3M.
Regarding `CN(C)CCNS(=O)(=O)N(C)C`, the GI50 with SW-620 is > 100 µM (inactive); in the test with OVCAR-8, > 100 µM (inactive); with HCT-15 it was more than 100 µM; in the test on CCRF-CEM, > 100 µM (inactive); with A498, > 100 µM (inactive); in the test on NCI-H460 it was > 100 µM (inactive). Moreover, the GI50 in the test on NCI-H522, in the test on TK-10, in the test on SF-295, with U-251, with IGROV-1 and in the test with OVCAR-3 was > 100 µM (inactive) each time. Also, the GI50 in the test on HL-60, in the test with SK-OV-3, in the test on COLO 205, in the test with A549, with MDA-N and with SK-MEL-5 was > 100 µM (inactive) throughout. For the same compound, the GI50 with Malme-3M was > 100 µM (inactive).
For the compound `COc1ccccc1N1C(=O)/C(=C\c2cccc(Oc3ccccc3)c2)S(=O)(=O)C1c1ccccc1` (stereo unspecified), the GI50 in the test on SW-620 was 49.3 µM (inactive); with HCT-15, 32.4 µM; in the test with CCRF-CEM, 33.9 µM (inactive); in the test with A498 it was 49.8 µM (inactive); in the test with NCI-H460 it was 53.7 µM (inactive); in the test on NCI-H522, 22.5 µM (inactive). The GI50 is 58.7 µM (inactive) in the test on TK-10; 81.8 µM (inactive) with SF-295; 53.6 µM (inactive) in the test on U-251; > 100 µM (inactive) with HCC 2998; 38.7 µM (inactive) in the test on OVCAR-3; > 100 µM (inactive) with SK-OV-3. Further, the GI50 in the test with COLO 205 was 23.1 µM (inactive); in the test with A549, > 100 µM (inactive); with MDA-N it was 36.4 µM (inactive); in the test with SK-MEL-5, 21.5 µM (inactive); in the test on Malme-3M it was 69.3 µM (inactive).
`C=CCOC(=O)N1c2ccc(O[Si](C)(C)C(C)(C)C)cc2[C@@]23O[C@@]24[C@@H]1C#C/C=C\C#C[C@]3(O)C(OC)(OC)C[C@@H]4C`: the GI50 is 14 µM (inactive) in the test on SW-620; > 53.8 µM (inactive) with OVCAR-8; more than 100 µM with HCT-15; > 23.7 µM (inactive) in the test with CCRF-CEM; 1.31 µM (inactive) in the test with A498; 11.5 µM (inactive) in the test with NCI-H460. For the same compound, the GI50 with NCI-H522 is 44.6 µM (inactive); in the test on TK-10 it was > 30.5 µM (inactive); in the test with SF-295, > 34.1 µM (inactive); in the test on U-251, 18.6 µM (inactive); in the test on IGROV-1, > 100 µM (inactive); in the test on HCC 2998, > 22.8 µM (inactive). Besides, the GI50 is 5.55 µM (inactive) in the test with OVCAR-3; 7.36 µM (inactive) in the test on SK-OV-3; > 26.8 µM (inactive) in the test on COLO 205; 20 µM (inactive) in the test with A549; > 57.5 µM (inactive) with MDA-N; 18.7 µM (inactive) in the test on SK-MEL-5. For the same compound, the GI50 in the test with Malme-3M is > 100 µM (inactive).
In the case of `O=C(O)CS(=O)(=O)C(c1ccccc1)c1ccccc1`, the GI50 was > 100 µM (inactive) in the test with SW-620; > 100 µM (inactive) in the test on OVCAR-8; more than 100 µM in the test on HCT-15; > 100 µM (inactive) in the test on CCRF-CEM; > 100 µM (inactive) in the test on A498; > 100 µM (inactive) with NCI-H460. Also, the GI50 in the test with NCI-H522, with TK-10, in the test on SF-295, in the test on U-251, in the test with IGROV-1 and with OVCAR-3 was > 100 µM (inactive) throughout. Moreover, the GI50 in the test on HL-60, with SK-OV-3, in the test on COLO 205, with A549, with MDA-N and in the test with SK-MEL-5 was > 100 µM (inactive) in each case. Further, the GI50 in the test with Malme-3M is > 100 µM (inactive).
For the compound `COc1ccc(S(=O)(=O)N2C(=O)CCC2C(=O)NC(N)=O)cc1` (stereo unspecified), the GI50 is > 100 µM (inactive) in the test with SW-620; > 100 µM (inactive) in the test with OVCAR-8; more than 100 µM in the test on HCT-15; > 100 µM (inactive) in the test on CCRF-CEM; > 100 µM (inactive) with A498; > 100 µM (inactive) in the test with NCI-H460. Moreover, the GI50 with NCI-H522, in the test on TK-10, in the test with SF-295, in the test with U-251, in the test on IGROV-1 and in the test on OVCAR-3 was > 100 µM (inactive) in each case. The GI50 with HL-60, with SK-OV-3, in the test with COLO 205, in the test with A549, in the test on MDA-N and in the test on SK-MEL-5 was > 100 µM (inactive) each time. Besides, the GI50 in the test with Malme-3M was > 100 µM (inactive).
